# Assays:
# [1] = test system: MMP-1 production by monocytes; assay: MMP-1 protein in monocyte conditioned media, Western blot; format: cell-based, human
# Description: Reagents. High molecular weight urokinase plasminogen activator (HMW-uPA), low molecular weight uPA (LMW-uPA), amino-terminal fragment-uPA (ATF-uPA) and α2-antiplasmin were obtained from American Diagnostica Inc. (Stamford, Conn.). […] LPS Escherichia coli 05:B55 was purchased from Sigma-Aldrich (St. Louis, Mo.). ERK1/2/phospho-ERK1/2 and p38/phospho-p38 antibodies were from Cell Signaling Technology (Beverly, Mass.). MMP-1 antibodies used were rabbit polyclonal antibodies against MMP-1 (provided by Dr. Henning Birkedal-Hansen, NIDCR/NIH) and a mouse anti-human MMP-1 monoclonal antibody (Chemicon International, Inc., Temecula, Calif.). Rabbit anti-COX-2 antibodies were obtained from Cayman Chemical Company (Ann Arbor, Mich.) and mouse anti-β-actin antibodies were from Chemicon International, Inc., Temecula, Calif.). Purification and culture of human monocytes. Human peripheral blood cells were obtained by leukapheresis of non-disease subjects. The monocyte fraction was purified by counter-flow centrifugal elutriation as previously described (Wahl et al., Cell Immunol. 85: 373-383, 1984; and Wahl et al., “In Current Protocols in Immunology,” eds. John Wiley & Sons, Inc. NY. Vol. 2: 7.6A.1-7.6A.10., 2005) and contained greater than 90% monocytes as determined by morphology and flow cytometry. Monocytes were cultured in serum-free Dulbecco Modified Eagle's Medium (DMEM; Cambrex, Walkersville, Md.) supplemented with 2 mM L-glutamine (Mediatech, Herndon, Va.) and 10 μg/ml gentamycin (Cambrex, Walkersville, Md.). Western blot analysis of MMP-1, MAPKs and COX-2. For MMP-1 determination, purified monocytes were cultured at a density of 5×10^6/ml of DMEM in 12 well polystyrene plates (Corning Incorporated Life Sciences, Lowell, Mass.). After 36 to 48 hours of treatment with reagents, the conditioned media were centrifuged and collected. Bovine serum albumin (BSA; 40 μg/ml) was added to the culture supernatants prior to the precipitation of the proteins with cold ethanol (final concentration, 60%) for at least 15 min at −70° C. The proteins were pelleted by microcentrifuging at 20,800×g for 12 min, washed with ethanol, and lyophilized by rotary evaporation. The lyophilized proteins were resuspended in sodium dodecyl sulfate (SDS)-Laemmli buffer [500 mM Tris-HCl (pH 6.8)/10% SDS/0.01% bromophenol-blue/20% glycerol], reduced with 5% β-mercaptoethanol, heated for 4 min at 100° C., and electrophoresed on a 10 or 12% Tris-glycine gel in SDS running buffer [25 mM Tris-HCl (pH 8.3)/192 mM glycine/[…]]. The proteins were transferred onto 0.45 μm nitrocellulose in a buffer containing 25 mM Tris-HCl (pH 8.3)/192 mM glycine/20% methanol and blocked with 50 mM Tris-HCl (pH 7.5)/150 mM NaCl (TBS) containing 5% nonfat dry milk for at least 1 hour. The blots were then incubated overnight with antibodies against MMP-1.
# Western blots for MMP-1, MAPKs and COX-2 were incubated overnight with primary antibodies, washed and analyzed by the addition of Alexa Fluor 680 goat anti-rabbit or Alexa Fluor 750 goat anti-mouse antibodies (Molecular Probes® Inc., Eugene, Oreg.) and the infrared fluorescence detected with the Odyssey infrared imaging system (LI-COR, Lincoln, Nebr.). Densitometry analysis of the bands on the Western blots was determined with the LI-COR software analysis program or the ImageQuant software analysis program (Amersham Biosciences, Piscataway, N.J.).
# PGE2 = PGE2 in monocyte culture supernatants, ELISA; format: cell-based, human; conditions: LPS-stimulated monocytes, 24 hours; FIG. 4B
# Protocol: FIGS. 4A-4C illustrate that stimulation of MMP-1 by HMW-uPA and plasmin is mediated in part by PGE2. FIG. 4A is a digital image depicting cyclooxygenase-2 (COX-2) protein levels detected in monocyte cultures determined by Western blot analysis in the presence of HMW-uPA (30 nM) or plasmin (360 nM) in the absence or presence of LPS (25 ng/ml). β-actin protein levels were detected to serve as an indicator for equal sample loading. FIG. 4B is a bar graph illustrating media levels of PGE2 measured by ELISA at 24 hours. FIG. 4C is a digital image illustrating MMP-1 protein levels detected by Western blot analysis in monocyte cultures following incubation with indomethacin for 30 minutes prior to the addition of LPS, HMW-uPA, plasmin or PGE2 (1 μM).
substance,measurement,setting,value
plasmin,protein levels of MMP-1,"[1]; LPS (25 ng/ml) stimulated monocytes, indicated concentrations, FIG. 1A / 2B",dose-dependent increase
same,induction of MMP-1 protein,"[1]; unstimulated (control) monocytes, no LPS",did not induce MMP-1
same,PGE2 levels in monocyte culture supernatants,PGE2,increased PGE2 levels
